Data from ChEMBL document CHEMBL1201862, “PubChem BioAssay data set” (2004).
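Exposure lasted 48 hours, with cells grown in 96-well plates and compounds tested at five concentrations. GI50 = concentration required for 50% inhibition of growth.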 Activity calls are given as the source filed them. Rule as the data show it: active = GI50 up to about 1.1 µM and inactive = higher.

How the values were obtained:
Experiment in all cases: inhibition of tumour cell growth, NCI panel, 48 h
[1] = tested on: 786-0
[2] = tested on: A498
[3] = tested on: A549
[4] = tested on: ACHN
[5] = tested on: CCRF-CEM
[6] = tested on: COLO 205
[7] = tested on: EKVX
[8] = tested on: HCC 2998
[9] = tested on: HCT-116
[10] = tested on: HCT-15
[11] = tested on: HL-60
[12] = tested on: HOP-62
[13] = tested on: HOP-92
[14] = tested on: HT-29
[15] = tested on: Hs-578T
[16] = tested on: IGROV-1
[17] = tested on: K562
[18] = tested on: KM12
[19] = tested on: LOX IMVI
[20] = tested on: M14
[21] = tested on: MCF7
[22] = tested on: MDA-MB-231
[23] = tested on: MDA-MB-435
[24] = tested on: MDA-N
[25] = tested on: MOLT-4
[26] = tested on: Malme-3M
[27] = tested on: NCI-H226
[28] = tested on: NCI-H23
[29] = tested on: NCI-H522
[30] = tested on: NCI/ADR-RES
[31] = tested on: OVCAR-3
[32] = tested on: OVCAR-4
[33] = tested on: OVCAR-5
[34] = tested on: OVCAR-8
[35] = tested on: PC-3
[36] = tested on: RPMI-8226
[37] = tested on: RXF 393
[38] = tested on: SF-295
[39] = tested on: SF-539
[40] = tested on: SK-MEL-2
[41] = tested on: SK-MEL-5
[42] = tested on: SK-OV-3
[43] = tested on: SN12C
[44] = tested on: SR
[45] = tested on: T47D
[46] = tested on: TK-10
[47] = tested on: U-251
[48] = tested on: UACC-257
[49] = tested on: UACC-62
[50] = tested on: UO-31
[51] = tested on: BT-549
[52] = tested on: CAKI-1
[53] = tested on: DU-145
[54] = tested on: NCI-H460
[55] = tested on: SF-268
[56] = tested on: SK-MEL-28
[57] = tested on: SNB-19
[58] = tested on: SNB-75
[59] = tested on: SW-620

For `O=C(O)CCCc1ccc2c(c1)CC1(C2)Cc2cc3c(cc2C1)CCCC3`, the GI50 [1] was 28.6 µM (inactive), the GI50 [2] was 17.1 µM (inactive) and the GI50 [3] was 6.43 µM (inactive). For the same compound, the GI50 [4] was 17 µM (inactive), the GI50 [5] was 11.6 µM (inactive) and the GI50 [6] was 19.9 µM (inactive). For the same compound, the GI50 [7] was > 100 µM (inactive), the GI50 [8] was 19.8 µM (inactive) and the GI50 [9] was 2.56 µM (inactive). The GI50 [10] was 8.3 µM, the GI50 [11] was 11.6 µM (inactive) and the GI50 [12] was 1.98 µM (inactive). The GI50 [13] was 23.7 µM (inactive), the GI50 [14] was 16.3 µM (inactive) and the GI50 [15] was > 100 µM (inactive). For the same compound, the GI50 [16] was 20 µM (inactive), the GI50 [17] was 11.2 µM (inactive) and the GI50 [18] was 19 µM (inactive). For the same compound, the GI50 [19] was 17.7 µM (inactive), the GI50 [20] was 15.2 µM (inactive) and the GI50 [21] was 39.4 µM (inactive). For the same compound, the GI50 [22] was 3.24 µM (inactive), the GI50 [23] was 17.3 µM (inactive) and the GI50 [24] was 19.1 µM (inactive). For the same compound, the GI50 [25] was 1.52 µM (inactive), the GI50 [26] was 22 µM (inactive) and the GI50 [27] was 31.6 µM (inactive). For the same compound, the GI50 [28] was 23.6 µM (inactive), the GI50 [29] was 19.2 µM (inactive) and the GI50 [30] was 31.8 µM (inactive). For the same compound, the GI50 [31] was 19.3 µM (inactive), the GI50 [32] was 19.5 µM (inactive) and the GI50 [33] was 19.9 µM (inactive). The GI50 [34] was 16.5 µM (inactive), the GI50 [35] was 24.6 µM (inactive) and the GI50 [36] was 28 µM (inactive). For the same compound, the GI50 [37] was 13.2 µM (inactive), the GI50 [38] was 23.9 µM (inactive) and the GI50 [39] was 2.06 µM (inactive). The GI50 [40] was 17.5 µM (inactive), the GI50 [41] was 13.8 µM (inactive) and the GI50 [42] was 24.7 µM (inactive). For the same compound, the GI50 [43] was 22.1 µM (inactive), the GI50 [44] was 18.4 µM (inactive) and the GI50 [45] was 35.6 µM (inactive). For the same compound, the GI50 [46] was 42.7 µM (inactive), the GI50 [47] was 16.7 µM (inactive) and the GI50 [48] was 37.7 µM (inactive). The GI50 [49] was > 100 µM (inactive) and the GI50 [50] was 19.4 µM (inactive).
For `COc1cccc(CCNc2c(C#N)c3nc4ccccc4n3c3ccccc23)c1`, the GI50 [1] was 0.541 µM (active), the GI50 [2] was 0.592 µM (active) and the GI50 [3] was 1.33 µM (inactive). The GI50 [4] was 0.998 µM (active), the GI50 [51] was 0.618 µM (active) and the GI50 [52] was 1.05 µM (active). For the same compound, the GI50 [5] was 0.736 µM (active), the GI50 [6] was 0.447 µM (active) and the GI50 [53] was 2.29 µM (inactive). The GI50 [7] was 2.09 µM (inactive), the GI50 [8] was 0.643 µM (active) and the GI50 [9] was 0.405 µM (active). For the same compound, the GI50 [10] was 0.423 µM, the GI50 [11] was 0.34 µM (active) and the GI50 [12] was 10.5 µM (inactive). The GI50 [13] was 29.6 µM (inactive), the GI50 [14] was 0.337 µM (active) and the GI50 [15] was 0.498 µM (active). For the same compound, the GI50 [16] was 0.433 µM (active), the GI50 [17] was 0.141 µM (active) and the GI50 [18] was 0.258 µM (active). For the same compound, the GI50 [19] was 0.63 µM (active), the GI50 [20] was 4.23 µM (inactive) and the GI50 [21] was 0.0775 µM (active). The GI50 [22] was 2.33 µM (inactive), the GI50 [23] was 0.118 µM (active) and the GI50 [25] was 0.769 µM (active). For the same compound, the GI50 [26] was 0.239 µM (active), the GI50 [27] was 1.58 µM (inactive) and the GI50 [28] was 0.741 µM (active). The GI50 [54] was 0.378 µM (active), the GI50 [29] was 0.063 µM (active) and the GI50 [30] was 0.333 µM (active). For the same compound, the GI50 [31] was 3.87 µM (inactive), the GI50 [32] was 2.79 µM (inactive) and the GI50 [33] was 7 µM (inactive). For the same compound, the GI50 [34] was 0.807 µM (active), the GI50 [35] was 1.11 µM (active) and the GI50 [36] was 0.426 µM (active). The GI50 [37] was 0.607 µM (active), the GI50 [55] was 2.06 µM (inactive) and the GI50 [38] was 0.364 µM (active). The GI50 [39] was 0.548 µM (active), the GI50 [56] was 1.22 µM (inactive) and the GI50 [40] was > 41.6 µM (inactive). The GI50 [41] was 0.186 µM (active), the GI50 [42] was 1.18 µM (inactive) and the GI50 [43] was 3.19 µM (inactive). The GI50 [57] was 0.787 µM (active), the GI50 [58] was 0.404 µM (active) and the GI50 [44] was 0.177 µM (active). For the same compound, the GI50 [59] was 0.51 µM (active), the GI50 [45] was 2.17 µM (inactive) and the GI50 [46] was 4.6 µM (inactive). For the same compound, the GI50 [47] was 0.721 µM (active), the GI50 [48] was 0.851 µM (active) and the GI50 [49] was 0.316 µM (active). The GI50 [50] was 2.81 µM (inactive).
For `COc1ccc(-n2c(C)nc3ccc(NC(=S)Nc4ccccc4)cc3c2=O)cc1`, the GI50 [1] was > 100 µM (inactive), the GI50 [2] was > 100 µM (inactive) and the GI50 [4] was 65.9 µM (inactive). The GI50 [51] was 70 µM (inactive), the GI50 [52] was > 100 µM (inactive) and the GI50 [6] was 64.1 µM (inactive). The GI50 [53] was > 100 µM (inactive), the GI50 [7] was 65.2 µM (inactive) and the GI50 [8] was 26.2 µM (inactive). The GI50 [9] was 39.2 µM (inactive), the GI50 [10] was 76.2 µM and the GI50 [11] was 53.3 µM (inactive). The GI50 [12] was > 100 µM (inactive), the GI50 [14] was 62.4 µM (inactive) and the GI50 [15] was > 100 µM (inactive). The GI50 [16] was > 100 µM (inactive), the GI50 [17] was 51.6 µM (inactive) and the GI50 [18] was 72.3 µM (inactive). The GI50 [19] was 43.7 µM (inactive), the GI50 [21] was 43.2 µM (inactive) and the GI50 [22] was > 100 µM (inactive). For the same compound, the GI50 [23] was 61.5 µM (inactive), the GI50 [25] was 32.1 µM (inactive) and the GI50 [26] was > 100 µM (inactive). For the same compound, the GI50 [27] was 43.2 µM (inactive), the GI50 [28] was 52.7 µM (inactive) and the GI50 [54] was 12.4 µM (inactive). The GI50 [29] was 56.8 µM (inactive), the GI50 [30] was > 100 µM (inactive) and the GI50 [31] was 34.8 µM (inactive). For the same compound, the GI50 [32] was 86.1 µM (inactive), the GI50 [33] was > 100 µM (inactive) and the GI50 [34] was > 100 µM (inactive). For the same compound, the GI50 [35] was 35.7 µM (inactive), the GI50 [36] was 28.6 µM (inactive) and the GI50 [37] was 57.1 µM (inactive). The GI50 [55] was > 100 µM (inactive), the GI50 [38] was > 100 µM (inactive) and the GI50 [56] was 96.2 µM (inactive). The GI50 [40] was 56.1 µM (inactive), the GI50 [41] was 37.4 µM (inactive) and the GI50 [43] was > 100 µM (inactive). The GI50 [57] was > 100 µM (inactive), the GI50 [58] was > 100 µM (inactive) and the GI50 [44] was 60.7 µM (inactive). The GI50 [59] was > 100 µM (inactive), the GI50 [45] was 44.6 µM (inactive) and the GI50 [46] was > 100 µM (inactive). The GI50 [47] was > 100 µM (inactive), the GI50 [48] was 51.8 µM (inactive) and the GI50 [49] was 61.4 µM (inactive). For the same compound, the GI50 [50] was > 100 µM (inactive).
